According to ChEMBL document CHEMBL6074675, “4-Substituted-2-Thiazole Amides as Viral Replication Inhibitors of Alphaviruses” (J Med Chem, 2024):
≈ marks a conversion by molar mass, not a printed value.

Tests used:
[1] = Octanol/PBS buffer distribution coefficient, logD of the compound at pH 7.5 by LC-MS analysis; assay type: physicochemical
[2] = Kinetic solubility of the compound in simulated intestinal fluid at pH 7.5 by LC-MS analysis; assay type: physicochemical; details: read-out: Kinetic_solubility
[3] = Half life of the compound in human liver microsomes in presence of NADPH by LC-MS/MS analysis; assay type: ADME, Microsome
[4] = system: Chikungunya virus; test: Antiviral activity against Chikungunya virus 181/25 infected in human NHDF cells assessed as log reduction of virus titer at 10 uM treated with cells at 1 hr prior to infection and measured at 24 hrs post-infection by plaque assay; assay type: functional; details: time 25 hrs
[5] = Half life of the compound in mouse liver microsomes in presence of NADPH by LC-MS/MS analysis; assay type: ADME, Microsome
[6] = Cytotoxicity against human NHDF cells deficient of IRF3 assessed as reduction in cell viability incubated for 72 hrs by CellTiter Glo luminescence assay; assay type: toxicity, cell-based
[7] = system: Chikungunya virus; test: Antiviral activity against Chikungunya virus 181/25 infected in human NHDF cells assessed as reduction of virus titer treated with cells at 1 hr prior to infection and measured at 24 hrs post-infection by plaque assay; assay type: functional, organism-based; details: 181/25, NHDF, time 25 hrs
[8] = system: Zika virus; test: Antiviral activity against Zika virus PRABC59 infected in human HEK293 cells assessed as reduction of virus load measured at 3 days post-infection by focus-forming assay; assay type: functional; details: PRABC59, HEK293, 72 h, time 3 day
[9] = system: Venezuelan equine encephalitis virus; test: Antiviral activity against VEEV TC-83 infected in human NHDF cells assessed as reduction of virus titer treated with cells at 1 hr prior to infection and measured at 24 hrs post-infection by plaque assay; assay type: functional; details: TC-83, NHDF, time 25 hrs
[10] = system: Zika virus; test: Antiviral activity against Zika virus PRABC59 infected in human HEK293 cells assessed as log reduction of virus titer at 10 uM measured at 3 days post-infection by focus-forming assay; assay type: functional; details: time 3 day
[11] = Cytotoxicity against human NHDF cells assessed as reduction in cell viability incubated for 24 hrs by CellTiter Glo luminescence assay; assay type: toxicity, cell-based
[12] = Cytotoxicity against human HEK293 cells; assay type: toxicity, cell-based
[13] = system: West Nile virus; test: Antiviral activity against West Nile virus NY99 infected in human HEK293 cells assessed as reduction of virus load measured at 3 days post-infection by focus-forming assay; assay type: functional; details: NY99, HEK293, 72 h, time 3 day
[14] = system: dengue virus type 2; test: Antiviral activity against Dengue virus 2 NGC infected in human HEK293 cells assessed as reduction of virus load measured at 3 days post-infection by focus-forming assay; assay type: functional; details: HEK293, 72 h, time 3 day
[15] = system: Venezuelan equine encephalitis virus; test: Antiviral activity against VEEV TC-83 infected in human NHDF cells assessed as log reduction of virus titer at 10 uM treated with cells at 1 hr prior to infection and measured at 24 hrs post-infection by plaque assay; assay type: functional; details: time 25 hrs
[16] = system: dengue virus type 2; test: Antiviral activity against Dengue virus 2 NGC infected in human HEK293 cells assessed as log reduction of virus titer at 10 uM measured at 3 days post-infection by focus-forming assay; assay type: functional; details: time 3 day
[17] = system: West Nile virus; test: Antiviral activity against West Nile virus NY99 infected in human HEK293 cells assessed as log reduction of virus titer at 10 uM measured at 3 days post-infection by focus-forming assay; assay type: functional; details: time 3 day

| Compound | logD [1] | solubility kinetic [2] | half-life [3] | log(activity) [4] | half-life [5] | CC50 at 72 h [6] | EC90 [7] | EC90 [8] | EC90 [9] | log(activity) [10] | CC50 at 24 h [11] | CC50 [12] | EC90 [13] | EC90 [14] | log(activity) [15] | log(activity) [16] | log(activity) [17] |
| --- | --- | --- | --- | --- | --- | --- | --- | --- | --- | --- | --- | --- | --- | --- | --- | --- | --- |
| CC(C)(C(=O)O)c1ccc(C(=O)Nc2nc(-c3ccc4ccccc4c3)cs2)cc1 | 2.1 | 64 µM (≈ 26.7 µg/mL) | 292 min | 0 | 213 min | > 30 µM | – | – | – | – | – | – | – | – | – | – | – |
| CSc1ncccc1C(=O)Nc1nc(-c2ccc3ncccc3c2)cs1 | 3.8 | 56 µM (≈ 21.2 µg/mL) | 17 min | 1.2 | 13 min | 18 µM | 7.9 µM | – | – | – | – | – | – | – | – | – | – |
| CSc1ncccc1C(=O)Nc1nc(-c2cccc(Nc3ccc(C#N)cn3)c2)cs1 | – | < 1 µM | 19 min | 2.2 | 17 min | 40 µM | 4.8 µM | – | – | – | – | – | – | – | – | – | – |
| CSc1ncccc1C(=O)Nc1nc(-c2cccc(N3CCNCC3)c2)cs1 | 1.8 | 59 µM (≈ 24.3 µg/mL) | > 300 min | 8.7 | 211 min | > 30 µM | – | – | – | – | – | – | – | – | – | – | – |
| CC(C)(C#N)c1ccc(C(=O)Nc2nc(-c3ccc4ccccc4c3)cs2)cc1 | > 3.85 | < 1 µM | 98 min | 2.6 | 129 min | > 30 µM | 1.5 µM | – | – | – | – | – | – | – | – | – | – |
| CSc1ncccc1C(=O)Nc1nc(-c2cccc(-c3ccccn3)c2)cs1 | > 3.83 | < 1 µM | 15 min | 4 | 8 min | > 30 µM | 0.7 µM | – | – | – | – | – | – | – | – | – | – |
| CSc1ncccc1C(=O)Nc1nc(-c2cccc(Nc3ccc(C#N)c(O)c3)c2)cs1 | > 3.46 | 1 µM (≈ 0.46 µg/mL) | 43 min | 1.2 | 35 min | 15.9 µM | 10.1 µM | – | – | – | – | – | – | – | – | – | – |
| CSc1ncccc1C(=O)Nc1nc(-c2cc(C(=O)O)cc(-c3ccc(C#N)cc3)c2)cs1 | 1.9 | < 1 µM | > 300 min | 0 | > 300 min | > 40 µM | – | – | – | – | – | – | – | – | – | – | – |
| CSc1ncccc1C(=O)Nc1nc(-c2cc(-c3ccc(C#N)cc3)ccc2F)cs1 | 2 | < 1 µM | 85 min | 5.8 | 69 min | > 30 µM | – | – | – | – | – | – | – | – | – | – | – |
| CC(C)(C)c1ncc(C(=O)Nc2nc(-c3ccc4ccccc4c3)cs2)s1 | > 3.03 | < 1 µM | 51 min | 7.5 | 9 min | > 30 µM | 3.5 µM | – | – | – | – | – | – | – | – | – | – |
| CC(C)(C)c1ccc(C(=O)Nc2nc(-c3ccc4ccccc4c3)cs2)cc1 | > 3.32 | < 1 µM | 49 min | 4.3 | 8 min | > 30 µM | 0.1 µM | – | – | – | – | – | – | – | – | – | – |
| CSc1ncccc1C(=O)Nc1nc(-c2cc(Nc3ccc(C#N)cc3)cc(N3CCOCC3)c2)cs1 | > 3.92 | < 1 µM | 15 min | 5.1 | 64 min | > 40 µM | 0.1 µM | 0.8 µM | 0.45 µM | 1.7 | > 30 µM | > 30 µM | 24 µM | 1.8 µM | 3.81 | 1.9 | – |
| CSc1ncccc1C(=O)Nc1nc(-c2cc(F)cc(-c3ccc(C#N)cc3)c2)cs1 | > 4.09 | < 1 µM | 53 min | 6.1 | 123 min | > 30 µM | – | – | – | – | – | – | – | – | – | – | – |
| O=C(Nc1nc(-c2ccc3ccccc3c2)cs1)c1cc(F)c(O)c(F)c1 | > 3.45 | < 1 µM | 137 min | 7.6 | 36 min | 20 µM | 2.9 µM | – | – | – | – | – | – | – | – | – | – |
| CSc1ncccc1C(=O)Nc1nc(-c2cccc(-c3ccc(C#N)cc3)c2)cs1 | > 4.66 | < 1 µM | 39 min | 4.7 | 57 min | > 30 µM | – | – | – | – | – | – | – | – | – | – | – |
| Cc1ncccc1C(=O)Nc1nc(-c2ccc3ccccc3c2)cs1 | > 4.27 | 3 µM (≈ 1.04 µg/mL) | 26 min | 1.9 | 26 min | > 30 µM | 3.2 µM | – | – | – | – | – | – | – | – | – | – |
| CSc1ncccc1C(=O)Nc1nc(-c2cccc(Nc3ccc(C#N)c(C(=O)O)c3)c2)cs1 | 1.4 | 84 µM (≈ 41 µg/mL) | 145 min | 0.15 | 72 min | > 40 µM | > 40 µM | – | – | – | – | – | – | – | – | – | – |
| CSc1ncccc1C(=O)Nc1nc(-c2cccc(Nc3cccc(C#N)c3)c2)cs1 | > 3.54 | < 1 µM | 25 min | 5.7 | 33 min | > 30 µM | – | 0.4 µM | 0.6 µM | 3.4 | > 30 µM | > 30 µM | 1.1 µM | 0.5 µM | 7.3 | 3.7 | 4.3 |
| CSc1ncccc1C(=O)Nc1nc(-c2cccc(-c3ccc(C#N)cn3)c2)cs1 | > 3.97 | < 1 µM | 25 min | 6 | 34 min | > 30 µM | – | – | – | – | – | – | – | – | – | – | – |
| CSc1ncccc1C(=O)Nc1nc(-c2cccc(-c3ccc(C#N)c(O)c3)c2)cs1 | > 3.91 | 3 µM (≈ 1.33 µg/mL) | 43 min | 8.5 | 49 min | > 30 µM | – | – | – | – | – | – | – | – | – | – | – |
| CSc1ncccc1C(=O)Nc1nc(-c2cccc(-c3ccccc3)c2)cs1 | > 4.15 | < 1 µM | 34 min | 7.8 | 51 min | > 30 µM | – | – | – | – | – | – | – | – | – | – | – |
| CSc1ncccc1C(=O)Nc1nc(-c2cccc(Nc3ccc(CN)cc3)c2)cs1 | 2.2 | 33 µM (≈ 14.8 µg/mL) | 37 min | 1.2 | 234 min | 15.4 µM | 9.8 µM | – | – | – | – | – | – | – | – | – | – |
